Experimental data from ChEMBL document CHEMBL5247584, “Design, synthesis and evaluation of fused hybrids with acetylcholinesterase inhibiting and Nrf2 activating functions for Alzheimer's disease” (Eur J Med Chem, 2022).
Calls of active or inactive are those of the source. The calls are words filed in the database; no cut-off is given here.

Tests used:
Mus musculus [1] = test: Cognitive enhancing effect in amyloid beta (1 to 42)-induced ICR mouse model assessed as increase in ACh level at 20 mg/kg […] by ELISA; assay type: functional, organism-based
[2] = biological target: T1, Nuclear factor erythroid 2-related factor 2 (Rattus norvegicus) (UniProt O54968); test: Activation of Nrf2 pathway in rat PC-12 cells assessed as fold increase in NQO1 level at 20 uM measured at 2 hrs by qRT-PCR analysis; assay type: cell-based; settings: PC12, filed as activator
T1 sequence (whole entry): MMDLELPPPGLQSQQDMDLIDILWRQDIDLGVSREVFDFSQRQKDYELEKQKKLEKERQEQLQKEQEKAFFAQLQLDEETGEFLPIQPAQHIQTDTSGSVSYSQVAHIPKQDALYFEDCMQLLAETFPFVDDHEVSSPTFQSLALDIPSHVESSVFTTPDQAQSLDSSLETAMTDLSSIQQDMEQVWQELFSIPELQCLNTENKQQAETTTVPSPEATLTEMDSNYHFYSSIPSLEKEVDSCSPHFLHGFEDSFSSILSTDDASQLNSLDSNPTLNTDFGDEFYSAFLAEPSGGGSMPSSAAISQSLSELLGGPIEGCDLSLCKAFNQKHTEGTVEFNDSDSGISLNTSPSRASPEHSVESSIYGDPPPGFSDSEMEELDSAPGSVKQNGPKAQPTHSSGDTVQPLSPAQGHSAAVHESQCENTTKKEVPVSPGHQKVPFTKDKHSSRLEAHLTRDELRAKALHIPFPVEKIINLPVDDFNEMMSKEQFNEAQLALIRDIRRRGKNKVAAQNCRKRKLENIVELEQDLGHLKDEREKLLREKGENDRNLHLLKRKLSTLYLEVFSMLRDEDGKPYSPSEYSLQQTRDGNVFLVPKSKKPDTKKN

[3] = biological target: T1, Nuclear factor erythroid 2-related factor 2 (Rattus norvegicus); test: Activation of Nrf2 pathway in rat PC-12 cells assessed as fold increase in GCLM level at 20 uM measured at 2 hrs by qRT-PCR analysis; assay type: cell-based; settings: PC12, filed as activator
BV-2 [4] = test: Antiinflammatory activity against LPS-injured mouse BV-2 cells assessed as decrease in IL-6 level at 5 uM by immunofluorescence staining based analysis; assay type: functional, cell-based
Mus musculus [5] = test: Antiinflammatory activity Abeta1-42-induced against ICR mouse assessed as increase in TGF-beta1 level at 10 mg/kg, po by ELISA analysis; assay type: functional, organism-based
[6] = biological target: T1, Nuclear factor erythroid 2-related factor 2 (Rattus norvegicus); test: Activation of Nrf2 pathway in rat PC-12 cells assessed as fold increase in Nrf2 level at 20 uM measured at 2 hrs by qRT-PCR analysis; assay type: cell-based; settings: PC12, filed as activator
Mus musculus [7] = test: Antialzheimer activity against scopolamine-induced cognitive impairment ICR mouse model assessed as reduction in escape latency at 3 mg/kg, po administered once a day for 10 days and measured after 5 to 10 days by Morris water maze test; assay type: functional, organism-based; settings: time 5-10 day
[8] = Hepatotoxicity in […] assessed as effect on ALT level; assay type: toxicity, cell-based
[9] = biological target: T1, Nuclear factor erythroid 2-related factor 2 (Rattus norvegicus); test: Induction of Nrf2 pathway in rat PC12 cells assessed as fold increase in Nrf2 level at 20 uM measured after 6 hrs by Western blot analysis; assay type: cell-based; settings: filed as activator
[10] = Hepatotoxicity in […] assessed as effect on AST level; assay type: toxicity, cell-based
BV-2 [11] = test: Neuroprotective activity against LPS-induced mouse BV-2 cells assessed as inhibition of ROS production at 1 to 40 uM preincubated for 1 hr followed by LPS stimulation and measured after 24 hrs by DCFH-DA staining based microplate reader anlaysis; assay type: functional, cell-based; settings: dose 1-40 µM, time 25.0 hrs
Mus musculus [12] = test: Antialzheimer activity against scopolamine-induced cognitive impairment ICR mouse model assessed as distance to reach target at 3 mg/kg, po administered once a day for 10 days and measured after 5 to 10 days by Morris water maze test; assay type: functional, organism-based; settings: time 5-10 day
[13] = biological target: T1, Nuclear factor erythroid 2-related factor 2 (Rattus norvegicus); test: Activation of Nrf2 pathway in rat PC-12 cells assessed as fold increase in NQO1 expression level at 1 to 20 uM measured at 6 hrs by qRT-PCR analysis; assay type: cell-based; settings: PC12, filed as activator, dose 1-20 µM
[14] = biological target: T1, Nuclear factor erythroid 2-related factor 2 (Rattus norvegicus); test: Activation of Nrf2 pathway in rat PC-12 cells assessed as fold increase in Nrf2 expression level at 1 to 20 uM measured at 6 hrs by qRT-PCR analysis; assay type: cell-based; settings: PC12, filed as activator, dose 1-20 µM
BV-2 [15] = test: Antiinflammatory activity against LPS-injured mouse BV-2 cells assessed as decrease in IL-1beta level at 5 uM by immunofluorescence staining based analysis; assay type: functional, cell-based
Acetylcholinesterase = Acetylcholinesterase (Homo sapiens, UniProt P22303); test: Inhibition of human AChE using ATC and BTC iodide as substrate preincubated for 5 mins followed by substrate addition and measured after 2 mins by DTNB reagent based assay
[16] = biological target: T1, Nuclear factor erythroid 2-related factor 2 (Rattus norvegicus); test: Activation of Nrf2 pathway in rat PC-12 cells assessed as fold increase in GCLM expression level at 1 to 20 uM measured at 6 hrs by qRT-PCR analysis; assay type: cell-based; settings: PC12, filed as activator, dose 1-20 µM
SH-SY5Y [17] = test: Antiproliferative activity against human SH-SY5Y cells assessed as reduction in cell viability measured for 24 hrs by MTT assay; assay type: functional, cell-based
Cholinesterase = Cholinesterase (Equus caballus, UniProt P81908); test: Inhibition of equine serum BuChE using ATC and BTC iodide as substrate preincubated for 5 mins followed by substrate addition and measured after 2 mins by DTNB reagent based assay
Mus musculus [18] = test: Antialzheimer activity against scopolamine-induced cognitive impairment ICR mouse model assessed as decrease in arrival time at 3 mg/kg, po administered once a day for 10 days and measured after 5 to 10 days by Morris water maze test; assay type: functional, organism-based; settings: time 5-10 day
[19] = biological target: T1, Nuclear factor erythroid 2-related factor 2 (Rattus norvegicus); test: Activation of Nrf2 pathway in rat PC-12 cells assessed as increase in NQO1 level at 20 uM measured after 6 hrs by Western blot analysis; assay type: cell-based; settings: PC12, filed as activator
Mus musculus [20] = test: Cognitive enhancing effect in amyloid beta (1 to 42)-induced ICR mouse model assessed as increase in ACh level at 10 mg/kg […] by ELISA; assay type: functional, organism-based
[21] = biological target: T1, Nuclear factor erythroid 2-related factor 2 (Rattus norvegicus); test: Activation of Nrf2 pathway in rat PC-12 cells assessed as increase in Nrf2 accumulation in nucleus at 20 uM measured after 1 to 5 hrs by Western blot analysis; assay type: cell-based; settings: PC12, filed as activator, time 1-5 hrs
[22] = biological target: T1, Nuclear factor erythroid 2-related factor 2 (Rattus norvegicus); test: Activation of Nrf2 pathway in rat PC-12 cells assessed as fold increase in HO-1 expression level at 1 to 20 uM measured at 6 hrs by qRT-PCR analysis; assay type: cell-based; settings: PC12, filed as activator, dose 1-20 µM
SH-SY5Y [23] = test: Neuroprotective activity against Abeta1-42-induced human SH-SY5Y cells assessed as restoration of cell viability preinubated for 2 hrs followed by Abeta1-42 induction and measured after 24 hrs by MTT assay; assay type: functional, cell-based; settings: time 26.0 hrs
Mus musculus [24] = test: Antiinflammatory activity Abeta1-42-induced against ICR mouse assessed as increase in TGF-beta1 level at 10 mg/kg, po in presence of presence of donepezil by ELISA analysis; assay type: functional, organism-based
PC-12 [25] = test: Cytotoxicity against rat PC12 cells assessed as growth inhibition at 5 uM after 24 hrs by MTT assay; assay type: toxicity, cell-based; settings: pc-12, 24 h
HepG2-ARE-C8 = test: Cytotoxicity against human HepG2-ARE-C8 cells assessed as reduction in cell viability at 5 and 20 uM measured for 24 hrs by MTT assay; assay type: functional, cell-based
PC-12 [26] = test: Cytoprotective activity against H2O2-induced cell damage in rat PC12 cells assessed as reduction in cell injury measured after 24 hrs by MTT assay relative to control; assay type: functional, cell-based; settings: dose 1-20 µM

Sequence of Acetylcholinesterase (P22303 whole entry): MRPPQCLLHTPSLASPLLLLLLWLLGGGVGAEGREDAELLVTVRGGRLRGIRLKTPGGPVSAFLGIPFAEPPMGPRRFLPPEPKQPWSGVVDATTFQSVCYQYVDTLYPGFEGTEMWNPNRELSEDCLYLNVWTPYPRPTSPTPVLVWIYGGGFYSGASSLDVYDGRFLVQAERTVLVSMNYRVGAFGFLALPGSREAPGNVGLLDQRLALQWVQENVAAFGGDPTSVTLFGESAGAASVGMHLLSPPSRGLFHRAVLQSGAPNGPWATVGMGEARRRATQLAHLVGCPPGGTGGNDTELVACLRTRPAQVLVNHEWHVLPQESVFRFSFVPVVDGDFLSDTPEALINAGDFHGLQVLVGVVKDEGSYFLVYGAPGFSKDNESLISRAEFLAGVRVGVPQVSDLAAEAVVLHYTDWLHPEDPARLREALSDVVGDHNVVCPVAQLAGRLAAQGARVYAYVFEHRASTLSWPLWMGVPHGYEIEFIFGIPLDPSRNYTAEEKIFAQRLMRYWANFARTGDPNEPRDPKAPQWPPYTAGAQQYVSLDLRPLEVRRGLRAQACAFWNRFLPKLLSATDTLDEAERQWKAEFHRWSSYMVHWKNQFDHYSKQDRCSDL
Sequence of Cholinesterase (P81908 whole entry): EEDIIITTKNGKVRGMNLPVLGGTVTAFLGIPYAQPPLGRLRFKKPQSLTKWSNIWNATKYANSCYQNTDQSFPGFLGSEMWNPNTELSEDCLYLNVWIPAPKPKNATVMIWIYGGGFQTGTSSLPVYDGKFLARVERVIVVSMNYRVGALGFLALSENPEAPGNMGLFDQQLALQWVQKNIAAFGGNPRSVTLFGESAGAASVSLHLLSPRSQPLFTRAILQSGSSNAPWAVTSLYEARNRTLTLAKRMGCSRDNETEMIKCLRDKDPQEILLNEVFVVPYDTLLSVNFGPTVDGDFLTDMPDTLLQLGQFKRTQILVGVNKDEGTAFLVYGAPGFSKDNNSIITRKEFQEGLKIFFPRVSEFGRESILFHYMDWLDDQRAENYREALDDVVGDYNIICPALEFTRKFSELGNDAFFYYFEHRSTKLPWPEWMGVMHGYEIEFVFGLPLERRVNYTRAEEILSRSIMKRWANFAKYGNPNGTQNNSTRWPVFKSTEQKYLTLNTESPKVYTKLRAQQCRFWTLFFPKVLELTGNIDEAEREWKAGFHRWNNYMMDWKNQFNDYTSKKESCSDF

Cc1ccc(-c2noc(-c3cccc(OCC4CCN(Cc5cccc(F)c5)CC4)c3)n2)cn1
Activity (Mus musculus [1]): inactive
fold change (FC) [2]: 8
fold change (FC) [3]: 8
Activity (BV-2 [4]): inactive
Activity (Mus musculus [5]): Active
fold change (FC) [6]: 4
Activity (Mus musculus [7]): Active
Activity [8]: Non-Toxic
fold change (FC) [9]: 4
Activity [10]: Non-Toxic
Activity (BV-2 [11]): Active
Activity (Mus musculus [12]): Active
fold change (FC) [13]: 4
fold change (FC) [14]: 4
Activity (BV-2 [15]): inactive
IC50 (Acetylcholinesterase): 380 nM
fold change (FC) [16]: 4
Activity (SH-SY5Y [17]): inactive
IC50 (Cholinesterase): 8.15 µM
Activity (Mus musculus [18]): Active
Activity [19]: Active
Activity (Mus musculus [20]): Active
Activity [21]: Active
fold change (FC) [22]: 4
Activity (SH-SY5Y [23]): Active
Activity (Mus musculus [24]): Active
Activity (PC-12 [25]): Non-Toxic
Activity (HepG2-ARE-C8): inactive
Activity (PC-12 [26]): Dose-Dependent Effect
